Reference: publication doi:10.1101/2020.06.11.145995v1 (biorxiv, 2020)
Like-named read-outs stand apart in the source and are kept apart here.

Key:
Experiment in all cases: biochemical
[1] = molecular target: ABL1-nonphosphorylated (Homo sapiens, UniProt P00519)
[2] = molecular target: NEK4 (Homo sapiens, UniProt P51957)
[3] = molecular target: PDGFRB (Homo sapiens, UniProt P09619)
[4] = molecular target: PIK3C2B (Homo sapiens, UniProt O00750)
[5] = molecular target: PIK3CA(E542K) (Homo sapiens, UniProt P42336, E542K)
[6] = molecular target: PIK3CA(M1043I (Homo sapiens, UniProt P42336, M1043I))
[7] = molecular target: PRKD1 (Homo sapiens, UniProt Q15139)
[8] = molecular target: RET(M918T) (Homo sapiens, UniProt P07949, M918T)
[9] = molecular target: RET(V804L) (Homo sapiens, UniProt P07949, V804L)
[10] = molecular target: RIOK1 (Homo sapiens, UniProt Q9BRS2)
[11] = molecular target: RIOK2 (Homo sapiens, UniProt Q9BVS4)
[12] = molecular target: RIOK3 (Homo sapiens, UniProt O14730)
[13] = molecular target: RIPK1 (Homo sapiens, UniProt Q13546)
[14] = molecular target: RPS6KA5 (Homo sapiens, UniProt O75582)
[15] = molecular target: SGK3 (Homo sapiens, UniProt Q96BR1)
[16] = molecular target: SIK (Homo sapiens, UniProt P57059)
[17] = molecular target: SNRK (Homo sapiens, UniProt Q9NRH2)
[18] = molecular target: SRMS (Homo sapiens, UniProt Q9H3Y6)
[19] = molecular target: STK16 (Homo sapiens, UniProt O75716)
[20] = molecular target: STK36 (Homo sapiens, UniProt Q9NRP7)
[21] = molecular target: TAK1 (Homo sapiens, UniProt O43318)
[22] = molecular target: TBK1 (Homo sapiens, UniProt Q9UHD2)
[23] = molecular target: TESK1 (Homo sapiens, UniProt Q15569)
[24] = molecular target: TLK1 (Homo sapiens, UniProt Q9UKI8)
[25] = molecular target: TNK2 (Homo sapiens, UniProt Q07912)
[26] = molecular target: TRKC (Homo sapiens, UniProt Q16288)
[27] = molecular target: TTK (Homo sapiens, UniProt P33981)
[28] = molecular target: ULK2 (Homo sapiens, UniProt Q8IYT8)
[29] = molecular target: YANK2 (Homo sapiens, UniProt Q9NY57)
[30] = read-out: HYJ-2-002-1 (1μM) % control
[31] = read-out: CPT-1-70-1 (1μM) % control

RPS6KA5, sequence (O75582 whole entry): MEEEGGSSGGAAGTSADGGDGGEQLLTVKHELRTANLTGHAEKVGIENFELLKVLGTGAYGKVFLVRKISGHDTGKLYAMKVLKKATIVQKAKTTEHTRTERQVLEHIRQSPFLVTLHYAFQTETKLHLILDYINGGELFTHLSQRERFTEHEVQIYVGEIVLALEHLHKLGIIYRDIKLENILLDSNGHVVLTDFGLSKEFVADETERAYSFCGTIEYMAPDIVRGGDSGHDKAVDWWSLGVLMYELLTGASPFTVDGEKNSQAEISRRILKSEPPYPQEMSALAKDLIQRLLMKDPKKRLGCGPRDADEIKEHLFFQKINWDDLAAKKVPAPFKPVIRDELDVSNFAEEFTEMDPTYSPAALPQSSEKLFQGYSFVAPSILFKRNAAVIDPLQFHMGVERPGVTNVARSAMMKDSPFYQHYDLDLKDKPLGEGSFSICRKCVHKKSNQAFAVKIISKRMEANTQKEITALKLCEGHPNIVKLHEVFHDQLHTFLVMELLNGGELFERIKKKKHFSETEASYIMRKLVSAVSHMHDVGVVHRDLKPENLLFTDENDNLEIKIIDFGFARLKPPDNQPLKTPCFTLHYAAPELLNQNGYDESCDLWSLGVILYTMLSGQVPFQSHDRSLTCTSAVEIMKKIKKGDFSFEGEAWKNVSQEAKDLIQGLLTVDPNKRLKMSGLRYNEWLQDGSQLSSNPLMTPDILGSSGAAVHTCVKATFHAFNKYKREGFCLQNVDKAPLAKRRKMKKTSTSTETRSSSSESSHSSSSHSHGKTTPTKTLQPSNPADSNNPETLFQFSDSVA
RET(M918T), sequence (P07949 whole entry M918T): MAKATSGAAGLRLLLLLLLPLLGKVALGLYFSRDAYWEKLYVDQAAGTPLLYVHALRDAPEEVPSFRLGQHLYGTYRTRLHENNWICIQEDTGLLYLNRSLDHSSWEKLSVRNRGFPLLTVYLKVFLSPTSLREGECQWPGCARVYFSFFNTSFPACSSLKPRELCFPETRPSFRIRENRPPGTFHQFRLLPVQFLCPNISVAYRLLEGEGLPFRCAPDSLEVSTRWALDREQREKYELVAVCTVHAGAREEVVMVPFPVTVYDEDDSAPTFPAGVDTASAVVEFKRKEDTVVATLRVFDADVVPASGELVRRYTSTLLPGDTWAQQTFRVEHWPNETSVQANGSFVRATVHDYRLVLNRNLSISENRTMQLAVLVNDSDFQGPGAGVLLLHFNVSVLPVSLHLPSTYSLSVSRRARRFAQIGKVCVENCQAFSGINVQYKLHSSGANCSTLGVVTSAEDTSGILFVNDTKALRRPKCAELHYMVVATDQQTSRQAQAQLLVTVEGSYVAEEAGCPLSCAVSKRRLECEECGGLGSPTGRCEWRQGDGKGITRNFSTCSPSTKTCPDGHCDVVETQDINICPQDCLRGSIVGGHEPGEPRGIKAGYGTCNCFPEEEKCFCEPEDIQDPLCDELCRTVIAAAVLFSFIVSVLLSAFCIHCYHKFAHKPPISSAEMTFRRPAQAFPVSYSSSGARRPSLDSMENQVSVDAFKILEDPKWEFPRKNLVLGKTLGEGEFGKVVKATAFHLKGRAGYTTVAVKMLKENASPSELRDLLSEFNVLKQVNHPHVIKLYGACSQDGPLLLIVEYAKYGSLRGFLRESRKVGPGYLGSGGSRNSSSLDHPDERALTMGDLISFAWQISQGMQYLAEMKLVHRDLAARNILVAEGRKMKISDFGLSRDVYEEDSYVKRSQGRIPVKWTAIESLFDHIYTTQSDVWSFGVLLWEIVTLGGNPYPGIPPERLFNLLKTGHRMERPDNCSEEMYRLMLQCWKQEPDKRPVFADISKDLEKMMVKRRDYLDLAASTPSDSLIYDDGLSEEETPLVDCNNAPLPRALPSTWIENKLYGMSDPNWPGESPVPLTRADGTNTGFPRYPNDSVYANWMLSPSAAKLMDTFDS
SGK3, sequence (Q96BR1 whole entry): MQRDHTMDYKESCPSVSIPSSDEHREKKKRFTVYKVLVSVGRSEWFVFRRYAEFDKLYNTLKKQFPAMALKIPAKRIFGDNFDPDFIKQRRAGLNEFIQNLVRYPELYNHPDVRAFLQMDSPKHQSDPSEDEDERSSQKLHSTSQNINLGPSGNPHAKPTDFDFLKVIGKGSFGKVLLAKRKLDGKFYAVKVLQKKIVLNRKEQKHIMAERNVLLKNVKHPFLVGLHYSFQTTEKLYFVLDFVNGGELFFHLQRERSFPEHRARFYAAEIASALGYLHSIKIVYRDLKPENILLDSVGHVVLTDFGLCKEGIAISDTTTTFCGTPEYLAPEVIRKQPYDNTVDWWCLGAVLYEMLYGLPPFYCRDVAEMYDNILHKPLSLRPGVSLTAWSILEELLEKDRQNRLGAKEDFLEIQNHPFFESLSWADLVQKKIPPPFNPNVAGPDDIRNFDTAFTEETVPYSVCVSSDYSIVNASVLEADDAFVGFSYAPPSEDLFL
YANK2, sequence (Q9NY57 whole entry): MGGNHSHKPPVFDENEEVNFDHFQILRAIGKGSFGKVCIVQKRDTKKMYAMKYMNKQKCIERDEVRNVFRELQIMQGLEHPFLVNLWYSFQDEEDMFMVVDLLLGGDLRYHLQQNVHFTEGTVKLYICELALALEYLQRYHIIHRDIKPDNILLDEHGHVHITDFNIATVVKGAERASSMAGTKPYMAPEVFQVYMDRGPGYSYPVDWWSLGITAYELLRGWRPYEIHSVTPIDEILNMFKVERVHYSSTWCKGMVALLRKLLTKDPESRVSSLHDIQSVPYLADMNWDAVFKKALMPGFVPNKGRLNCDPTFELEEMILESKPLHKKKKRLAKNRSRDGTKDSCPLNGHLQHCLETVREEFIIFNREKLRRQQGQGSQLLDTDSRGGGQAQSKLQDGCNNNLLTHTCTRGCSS
PRKD1, sequence (Q15139 whole entry): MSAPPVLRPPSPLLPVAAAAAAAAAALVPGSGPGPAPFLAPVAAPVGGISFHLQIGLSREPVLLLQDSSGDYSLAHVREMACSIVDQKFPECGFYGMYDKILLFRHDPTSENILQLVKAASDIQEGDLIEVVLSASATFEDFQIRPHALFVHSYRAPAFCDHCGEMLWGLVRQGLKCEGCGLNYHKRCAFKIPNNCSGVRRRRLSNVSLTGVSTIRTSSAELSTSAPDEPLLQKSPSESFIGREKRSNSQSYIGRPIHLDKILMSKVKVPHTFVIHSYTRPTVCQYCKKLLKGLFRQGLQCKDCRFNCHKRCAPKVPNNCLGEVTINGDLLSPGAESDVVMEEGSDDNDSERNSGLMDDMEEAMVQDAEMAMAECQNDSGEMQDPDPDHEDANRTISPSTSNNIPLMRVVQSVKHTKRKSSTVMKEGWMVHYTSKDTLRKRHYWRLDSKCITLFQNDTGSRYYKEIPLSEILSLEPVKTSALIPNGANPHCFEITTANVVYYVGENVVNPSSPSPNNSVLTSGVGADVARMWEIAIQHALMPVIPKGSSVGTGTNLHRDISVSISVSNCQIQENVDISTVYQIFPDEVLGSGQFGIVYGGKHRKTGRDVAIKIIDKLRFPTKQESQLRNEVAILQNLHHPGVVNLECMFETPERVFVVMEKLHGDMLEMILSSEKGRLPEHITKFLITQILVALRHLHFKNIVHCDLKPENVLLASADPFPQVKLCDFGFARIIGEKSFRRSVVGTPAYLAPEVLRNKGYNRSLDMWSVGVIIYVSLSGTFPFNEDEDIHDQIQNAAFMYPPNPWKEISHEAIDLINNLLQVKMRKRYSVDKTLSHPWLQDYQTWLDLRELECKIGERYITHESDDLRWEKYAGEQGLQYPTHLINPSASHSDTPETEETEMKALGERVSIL
PIK3CA(E542K), sequence (P42336 whole entry E542K): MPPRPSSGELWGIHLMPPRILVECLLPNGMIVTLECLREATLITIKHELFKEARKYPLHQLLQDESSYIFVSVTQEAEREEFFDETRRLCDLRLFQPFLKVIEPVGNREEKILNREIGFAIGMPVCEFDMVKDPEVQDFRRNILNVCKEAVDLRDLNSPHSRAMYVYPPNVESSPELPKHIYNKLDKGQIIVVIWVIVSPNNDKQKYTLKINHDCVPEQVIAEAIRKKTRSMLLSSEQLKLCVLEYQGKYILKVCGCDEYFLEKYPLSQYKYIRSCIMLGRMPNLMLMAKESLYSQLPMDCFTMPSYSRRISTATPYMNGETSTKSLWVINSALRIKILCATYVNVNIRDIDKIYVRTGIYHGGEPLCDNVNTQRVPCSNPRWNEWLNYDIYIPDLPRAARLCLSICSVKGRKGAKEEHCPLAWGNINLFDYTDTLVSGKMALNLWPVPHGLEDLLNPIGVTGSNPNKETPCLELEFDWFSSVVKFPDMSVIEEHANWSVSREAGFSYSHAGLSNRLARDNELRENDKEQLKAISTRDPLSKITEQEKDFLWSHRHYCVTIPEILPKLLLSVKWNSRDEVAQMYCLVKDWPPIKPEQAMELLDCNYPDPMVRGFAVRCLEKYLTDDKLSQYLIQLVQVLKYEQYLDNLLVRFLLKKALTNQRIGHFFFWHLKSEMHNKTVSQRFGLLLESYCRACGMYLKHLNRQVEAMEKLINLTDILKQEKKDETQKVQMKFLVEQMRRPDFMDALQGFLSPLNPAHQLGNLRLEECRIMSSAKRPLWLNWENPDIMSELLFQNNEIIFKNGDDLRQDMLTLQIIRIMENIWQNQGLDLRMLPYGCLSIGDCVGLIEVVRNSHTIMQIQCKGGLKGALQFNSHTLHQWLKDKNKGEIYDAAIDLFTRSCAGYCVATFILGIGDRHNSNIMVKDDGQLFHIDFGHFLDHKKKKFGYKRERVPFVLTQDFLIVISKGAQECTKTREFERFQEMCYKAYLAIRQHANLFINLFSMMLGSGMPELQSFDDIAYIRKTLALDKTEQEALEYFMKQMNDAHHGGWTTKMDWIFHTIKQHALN
PIK3CA(M1043I, sequence (P42336 whole entry M1043I): as the sequence (P42336 whole entry E542K) above, with K542E, M1043I counted along it
RET(V804L), sequence (P07949 whole entry V804L): as the sequence (P07949 whole entry M918T) above, with V804L, T918M counted along it

SMILES: CCN1CCN(Cc2ccc(NC(=O)c3ccc(C)c(CCc4cnc5[nH]ccc5c4OC)c3)cc2C(F)(F)F)CC1 [HYJ-2-002-1]
- remaining activity at 1 µM ([1]; read-out: HYJ-2-002-1 (1uM) % control): 0.05%
- remaining activity at 1 µM [2, 30]: 57%
- remaining activity at 1 µM [3, 30]: 0%
- remaining activity at 1 µM [4, 30]: 100%
- remaining activity at 1 µM [5, 30]: 100%
- remaining activity at 1 µM [6, 30]: 100%
- remaining activity at 1 µM [7, 30]: 90%
- remaining activity at 1 µM [8, 30]: 0.95%
- remaining activity at 1 µM [9, 30]: 1.4%
- remaining activity at 1 µM [10, 30]: 100%
- remaining activity at 1 µM [11, 30]: 35%
- remaining activity at 1 µM [12, 30]: 100%
- remaining activity at 1 µM [13, 30]: 8.2%
- remaining activity at 1 µM ([14]; read-out: HYJ-2-002-1 (1μM) % control, Kin.Dom.1-N-terminal): 76%
- remaining activity at 1 µM ([14]; read-out: HYJ-2-002-1 (1μM) % control, Kin.Dom.2-C-terminal): 100%
- remaining activity at 1 µM [15, 30]: 100%
- remaining activity at 1 µM [16, 30]: 1.8%
- remaining activity at 1 µM [17, 30]: 100%
- remaining activity at 1 µM [18, 30]: 8.4%
- remaining activity at 1 µM [19, 30]: 80%
- remaining activity at 1 µM [20, 30]: 2.2%
- remaining activity at 1 µM [21, 30]: 6.6%
- remaining activity at 1 µM [22, 30]: 100%
- remaining activity at 1 µM [23, 30]: 81%
- remaining activity at 1 µM [24, 30]: 74%
- remaining activity at 1 µM [25, 30]: 4.1%
- remaining activity at 1 µM [26, 30]: 8%
- remaining activity at 1 µM [27, 30]: 64%
- remaining activity at 1 µM [28, 30]: 88%
- remaining activity at 1 µM [29, 30]: 100%

SMILES: CN1CCN(c2ccc(Nc3nc(Oc4ccc(NC(=O)CCl)cc4)c4cc[nH]c4n3)cc2)CC1 [CPT1-70-1]
- remaining activity at 1 µM ([1]; read-out: CPT-1-70-1 (1uM) % control): 25%
- remaining activity at 1 µM [2, 31]: 100%
- remaining activity at 1 µM [3, 31]: 6.9%
- remaining activity at 1 µM [4, 31]: 100%
- remaining activity at 1 µM [5, 31]: 100%
- remaining activity at 1 µM [6, 31]: 100%
- remaining activity at 1 µM [7, 31]: 52%
- remaining activity at 1 µM [8, 31]: 13%
- remaining activity at 1 µM [9, 31]: 11%
- remaining activity at 1 µM [10, 31]: 49%
- remaining activity at 1 µM [11, 31]: 5.2%
- remaining activity at 1 µM [12, 31]: 53%
- remaining activity at 1 µM [13, 31]: 0.15%
- remaining activity at 1 µM ([14]; read-out: CPT-1-70-1 (1μM) % control, Kin.Dom.1-N-terminal): 100%
- remaining activity at 1 µM [15, 31]: 74%
- remaining activity at 1 µM [16, 31]: 100%
- remaining activity at 1 µM [17, 31]: 55%
- remaining activity at 1 µM [18, 31]: 100%
- remaining activity at 1 µM [19, 31]: 0.75%
- remaining activity at 1 µM [20, 31]: 78%
- remaining activity at 1 µM [21, 31]: 3.6%
- remaining activity at 1 µM [22, 31]: 43%
- remaining activity at 1 µM [23, 31]: 83%
- remaining activity at 1 µM [24, 31]: 100%
- remaining activity at 1 µM [25, 31]: 100%
- remaining activity at 1 µM [26, 31]: 61%
- remaining activity at 1 µM [27, 31]: 4.8%
- remaining activity at 1 µM [28, 31]: 29%
- remaining activity at 1 µM [29, 31]: 100%
